Source: US20240308995A1, “O-GLYCOPROTEIN-2-ACETAMIDO-2-DEOXY-3-D-GLUCOPYRANOSIDASE INHIBITORS” (BIOGEN MA INC., priority 2018, published 2024)
Like-named read-outs stand apart in the source and are kept apart here.

Experiments:
[1] = system: MDR1-MDCK cell monolayers; test: MDR1-MDCK Efflux Ratio Assay; assay type: in vitro ADME; conditions: MDR1-MDCK cells, 2 hr, pH 7.4
In short: (§1)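 Bidirectional (apical↔basolateral) transport across confluent MDR1-MDCK monolayers in HBSS/10 mM HEPES pH 7.4, receiver buffer with 1% BSA; 2 hr at 37° C, 5% CO2. Donor sampled at 0 and 120 min, receiver at 120 min, quantified by LC-MS/MS in triplicate. Papp, efflux ratio and percent recovery calculated.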

[2] = biological target: OGA (S400 O-GLCNAC), HEK-293T cells transfected with Tau-V5 (Homo sapiens (Human), UniProt O60502); test: Cellular OGA-Tau MSD Assay; assay type: cell-based; conditions: HEK-293T cells, Tau-S400-GlcNAc MSD readout
In short: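 HEK-293T cells transfected with OGA and Tau-V5 plasmids were treated overnight at 37° C with a 10-point, 3-fold titration from 1 uM. Lysates went onto V5-antibody MSD plates to capture Tau, probed with a Tau O-GlcNAc antibody and read by electrochemiluminescence; IC50 from a 4-parameter fit.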

[3] = biological target: Recombinant full length human OGA enzyme (Homo sapiens (Human), UniProt O60502); test: OGA Enzyme Inhibition Biochemical Assay; conditions: 1 nM OGA, 100 μM 4-MUGlcNAc, pH 6.4
In short: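 Full-length recombinant human OGA with fluorogenic 4-MUGlcNAc in McIlvaine buffer pH 6.4, 0.01% BSA; 90 min at room temperature, glycine pH 10 quench, fluorescence Ex 355/Em 460 nm. 10-point, 4-fold dilution from 20 μM; 4-parameter variable-slope fit.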

[4] = Rat Liver Microsome Stability Assay; assay type: in vitro ADME; conditions: rat liver microsomes, 1 uM compound
[5] = system: P-gp (MDR1); test: MDR1-MDCK Efflux Ratio Assay; assay type: in vitro ADME; conditions: dog, read-out: MDR1-MDCK Efflux Ratio (B-A/A-B)
In short: as §1

[6] = MDCK-MDR1, pH 7.4, MDR1-MDCK cells, 2 hr, pH 7.4

Chain of OGA (S400 O-GLCNAC), HEK-293T cells transfected with Tau-V5 (O60502 whole entry): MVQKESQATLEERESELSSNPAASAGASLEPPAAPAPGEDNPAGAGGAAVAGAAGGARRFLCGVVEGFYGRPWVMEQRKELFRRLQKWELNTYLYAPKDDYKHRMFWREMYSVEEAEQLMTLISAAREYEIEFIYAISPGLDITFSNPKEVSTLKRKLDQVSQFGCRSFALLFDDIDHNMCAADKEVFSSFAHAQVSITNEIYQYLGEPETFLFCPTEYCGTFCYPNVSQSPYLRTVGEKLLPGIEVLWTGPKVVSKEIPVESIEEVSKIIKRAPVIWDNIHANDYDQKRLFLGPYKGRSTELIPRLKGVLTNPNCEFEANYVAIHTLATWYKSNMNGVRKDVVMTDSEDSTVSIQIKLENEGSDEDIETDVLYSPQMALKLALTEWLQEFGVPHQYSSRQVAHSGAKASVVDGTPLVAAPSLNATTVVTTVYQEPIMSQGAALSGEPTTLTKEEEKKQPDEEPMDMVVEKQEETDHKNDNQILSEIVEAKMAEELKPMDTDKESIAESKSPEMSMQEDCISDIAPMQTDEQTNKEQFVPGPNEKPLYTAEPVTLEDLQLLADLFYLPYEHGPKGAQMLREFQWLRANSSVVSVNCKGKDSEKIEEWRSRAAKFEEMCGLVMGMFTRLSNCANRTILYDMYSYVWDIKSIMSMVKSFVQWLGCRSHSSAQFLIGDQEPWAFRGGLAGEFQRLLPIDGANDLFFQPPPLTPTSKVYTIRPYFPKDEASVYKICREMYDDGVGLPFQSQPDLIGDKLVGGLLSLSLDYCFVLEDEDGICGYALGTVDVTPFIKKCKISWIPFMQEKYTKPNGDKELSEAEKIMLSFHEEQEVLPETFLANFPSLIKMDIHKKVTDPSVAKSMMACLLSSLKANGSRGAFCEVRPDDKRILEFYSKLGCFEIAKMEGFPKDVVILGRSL
Chain of Recombinant full length human OGA enzyme (O60502 whole entry): as above

MDR1-MDCK Efflux Ratio (B-A/A-B) [1]	IC50 [2] [nM]	IC50 [3] [nM]	RLM % Qh (%) [4] [%]	efflux ratio at 2 h [5, 6]	efflux ratio at 2 h ([5]; MDCK-MDR1, pH 7.4, repeated assay, value marked with asterisk (*))	Compound
2.3	1	< 1	39			N-(4-fluoro-5-(((2S,4R)-4-((6-methoxypyrimidin-4-yl-4,5,6-^13C3)oxy)-2 methylpyrrolidin-1-yl)methyl)thiazol-2-yl)acetamide [Example 1-153]
	2	< 1	30	16		CC(=O)Nc1ncc(CN2C[C@H](Oc3ccnc(C)n3)C[C@@H]2C)s1 [Example 1-104, N-(5-(((2S,4R)-2-methyl-4-((2-methylpyrimidin-4-yl)oxy)pyrrolidin-1-yl)methyl)thiazol-2-yl)acetamide]
	31	23	67	35.3		CC(=O)Nc1ncc(CN2CCC[C@H](Oc3cc(C)nc(C)c3)C2)s1 [Example 1-64, (S)—N-(5-((3-((2,6-dimethylpyridin-4-yl)oxy)piperidin-1-yl)methyl)thiazol-2-yl)acetamide]
	1	< 1	56	21.3		CC(=O)Nc1ncc(CN2C[C@H](Oc3cc(C)nc(C)c3)C[C@@H]2C)s1 [Example 1-60, N-(5-(((2S,4R)-4-((2,6-dimethylpyridin-4-yl)oxy)-2-methylpyrrolidin-1-yl)methyl)thiazol-2-yl)acetamide]
	< 1	1.2	65	18.1		CC(=O)Nc1ncc(CN2C[C@H](Oc3ncc(OC(F)F)cn3)C[C@@H]2C)s1 [Example 1-80, N-(5-(((2S,4R)-4-((5-(difluoromethoxy)pyrimidin-2-yl)oxy)-2-methylpyrrolidin-1-yl)methyl)thiazol-2-yl)acetamide]
	3	< 1	57	2.9		COc1cnc(O[C@@H]2C[C@H](C)N(Cc3cnc(NC(C)=O)s3)C2)cn1 [Example 1-73, N-(5-(((2S,4R)-4-((5-methoxypyrazin-2-yl)oxy)-2-methylpyrrolidin-1-yl)methyl)thiazol-2-yl)acetamide]
	5	2.1	61	2.1		CC(=O)Nc1nc(F)c(CN2C[C@H](Oc3cnc(C(F)F)cn3)C[C@@H]2C)s1 [Example 1-113, N-(5-(((2S,4R)-4-((5-(difluoromethyl)pyrazin-2-yl)oxy)-2-methylpyrrolidin-1-yl)methyl)-4-fluorothiazol-2-yl)acetamide]
	> 1000	720	20	5.3		COc1cc(O[C@H]2C[C@@H](C)N(Cc3cnc(NC(C)=O)s3)C2)ncn1 [Example 1-40, N-(5-(((2R,4S)-4-((6-methoxypyrimidin-4-yl)oxy)-2-methylpyrrolidin-1-yl)methyl)thiazol-2-yl)acetamide]
	24	2	51	23.3		CC(=O)Nc1nc(F)c(CN2C[C@H](Oc3cc(C)nc(C)c3)C[C@H]2C)s1 (stereo in doubt) [Example 1-51, N-(5-(((2R,4R)-4-((2,6-dimethylpyridin-4-yl)oxy)-2-methylpyrrololidin-1-yl)methyl)-4-fluorothiazol-2-yl)acetamide]
	19	< 1	35	6.2		[2H]c1nc(NC(C)=O)sc1CN1C[C@H](Oc2cc(OC)ncn2)C[C@@H]1C (single isomer, unassigned) [Example 1-162]
	35	210	86	2.3	2.1	CC(=O)Nc1ncc(CN2CCC[C@H](Oc3ccc(F)cn3)C2)s1 [Example 1-2, (S)—N-(5-((3-((5-fluoropyridin-2-yl)oxy)piperidin-1-yl)methyl)thiazol-2-yl)acetamide]
	70	11	78	25.4		CC(=O)Nc1nc(F)c(CN2CCC[C@H](Oc3cc(C)nc(C)c3)C2)s1 [Example 1-54, (S)—N-(5-((3-((2,6-dimethylpyridin-4-yl)oxy)piperidin-1-yl)methyl)-4-fluorothiazol-2-yl)acetamide]
	821	150	57	24.1		CC(=O)Nc1nc(F)c(CN2CC[C@H](Oc3cc(C)nc(C)c3)C2)s1 [Example 1-48, (S)—N-(5-((3-((2,6-dimethylpyridin-4-yl)oxy)pyrrolidin-1-yl)methyl)-4-fluorothiazol-2-yl)acetamide]
	< 1	< 1	88	1.1		CC(=O)Nc1nc(F)c(CN2C[C@H](Oc3ccc(Cl)cn3)C[C@@H]2C)s1 [Example 1-90, N-(5-(((2S,4R)-4-((5-chloropyridin-2-yl)oxy)-2-methylpyrrolidin-1-yl)methyl)-4-fluorothiazol-2-yl)acetamide]
	2	< 1	90	4.1		COc1cc(O[C@H]2CC[C@H](C)N(Cc3sc(NC(C)=O)nc3F)C2)ncn1 [Example 1-34, N-(4-fluoro-5-(((2S,5S)-5-((6-methoxypyrimidin-4-yl)oxy)-2-methylpiperidin-1-yl)methyl)thiazol-2-yl)acetamide]
	37	80	40	1.7		CC(=O)Nc1ncc(CN2CC[C@@H](Oc3ccc(F)cn3)C2)s1 [Example 1-6, (R)—N-(5-((3-((5-fluoropyridin-2-yl)oxy)pyrrolidin-1-yl)methyl)thiazol-2-yl)acetamide]
	1	< 1	86	1.2		CC(=O)Nc1nc(F)c(CN2C[C@H](Oc3cc(F)ccn3)C[C@@H]2C)s1 [Example 1-96, N-(4-fluoro-5-(((2S,4R)-4-((4-fluoropyridin-2-yl)oxy)-2-methylpyrrolidin-1-yl)methyl)thiazol-2-yl)acetamide]
	2	1.1	90	2.4		CC(=O)Nc1ncc(CN2C[C@H](Oc3ccc(C(F)F)cn3)C[C@@H]2C)s1 [Example 1-13, N-(5-(((2S,4R)-4-((5-(difluoromethyl)pyridin-2-yl)oxy)-2-methylpyrrolidin-1-yl)methyl)thiazol-2-yl)acetamide]
	2	< 1	27	4.3		[2H]C([2H])([2H])Oc1cc(O[C@@H]2C[C@H](C)N(Cc3cnc(NC(C)=O)s3)C2)ncn1 (single isomer, unassigned) [Example 1-154]
